Reference: US6380209B1 (dated 2002)
Counter-ions that a name gives are not always drawn.

- melting point: > 260 °C (dec.)
SMILES: Fc1ccc(-c2cc(NCC3CCNCC3)c3sccc3n2)cc1 (as salt: hydrochloride)
